Key:
Format in all cases: cell-based
[1] = test system: H295 (adrenal cortical carcinoma) cells; test: MTT assay, sensitization to vincristine or docetaxel in H295 cells; conditions: vincristine or docetaxel plus sensitizer at 10, 1 or 0.1 micromolar, versus chemotherapy alone, FIGS. 10A-10H
Protocol: (§1) Cancer cells grown in vitro are treated with chemotherapy drugs alone or simultaneously with a hedgehog pathway modulator, including itraconazole. The difference in cell death between cells treated with chemotherapy drugs alone or in simultaneous treatment with the hedgehog pathway modulators determines the degree of synergistic killing effect of the combination therapy.
(§2) Cell culture: The H295 cell line was grown in DMEM (Dulbecco's Modified Eagles Medium), supplemented with insulin, transferring, and selenium, 10% Fetal bovine serum, and gentamicin. The Kelly cell line was grown in DMEM, supplemented with 10% Fetal bovine serum, and gentamicin. Cell-based experiments were conducted in a 37 degree incubator supplemented with 5% carbon dioxide.
(§3) In vitro Pharmacology: H295 cells were plated in a 96-well dish at a density of 10000 cells per well and Kelly cells were plated at a density of 2000 cells per well. After 16 hours, cells were treated with 2-fold dilutions of vincristine (VCR) or docetaxel (DTX).
(§4) MTT Assay: Drug containing media from all of the dishes were discarded and MTT solution was added at a concentration of 5 micrograms per ml. The dishes were returned to the incubator for 4 hours.

[2] = test system: Kelly (neuroblastoma) cells; test: MTT assay, sensitization to vincristine or docetaxel in Kelly cells; conditions: vincristine or docetaxel plus sensitizer at 10, 1 or 0.1 micromolar, versus chemotherapy alone, FIGS. 10A-10H
Protocol: as §1, §2, §3, §4

[3] = test system: HeLa (cervical cancer) cells; test: MTT assay, sensitization to vincristine or docetaxel in HeLa cells; conditions: HeLa cells (pre-exposed to chemotherapy, second-line model); sensitizer 10, 1 or 0.1 micromolar; FIGS. 10I-10L

## CC1=C2C[C@H]3[C@@H](CC=C4C[C@@H](O)CC[C@@]43C)[C@@H]2CC[C@]12O[C@@H]1C[C@H](C)CN[C@H]1[C@H]2C [cyclopamine]
[1]
  concentration of chemotherapy necessary to stop proliferation as well as kill half of the amount of cells (IC50): remains less than concentration of chemotherapy alone
[2]
  concentration of chemotherapy necessary to stop proliferation as well as kill half of the amount of cells (IC50): remains less than concentration of chemotherapy alone
[3]
  sensitization to vincristine and docetaxel: did not respond

Source: patent US10507208B2, “Compositions, packaged pharmaceuticals, and methods of using hedgehog pathway modulators for the sensitization of resistant tumors” (priority 2015, dated 2019)
